Experiments:
Format in all cases: cell-based, human
[1] = test system: HepG2 NF-κB/Luc/sr39tk cells; test: 131I-FIAU uptake experiment in co-transformed HepG2 NF-κB/Luc/sr39tk cells; settings: reacted 2 h
Description: (§1) This experiment is provided to analyze uptake of 131I-FIAU drug by HepG2 NF-κB/Luc/sr39tk transformed cells. HepG2 NF-κB/Luc/sr39tk transformed cells were cultured overnight in a 6-well plate at 1×10^6 cells/well to attach the cells onto the plate. Then, 1 ml/well of labeled ^131I-FIAU was added into the cells and reacted for 2 h, and then the cells was washed with ice-cold PBS to quench the drug reaction, and detected for radioactivity. FIG. 4 is uptake effect of ^131I-FIAU in HepG2 NF-κB/Luc/sr39tk cell, in which X axis represents different transformed cell line; and Y axis is uptake amount of ^131I-FIAU per 0.1 million cells.

HepG2 cells = test: 131I-FIAU uptake experiment in HepG2 cells; settings: reacted 2 h
Description: as §1

HepG2 NF-κB/Luc cells = test: 131I-FIAU uptake experiment in HepG2 NF-κB/Luc cells; settings: reacted 2 h
Description: as §1

[2] = test system: HepG2 NF-κB/Luc/sr39tk cells; test: Cytotoxic effect of GCV on HepG2 NF-κB/Luc/sr39tk cells (WST-1 cell survival); settings: GCV 0.001-500 μM, 96 h
Description: HepG2 NF-κB/luc/sr39tk was cultured at 3000 cells/well in 96 well plate format to attach the cells onto the plate, then drug-treated for 48 h with different concentrations of GCV at 0.001, 0.01, 0.1, 1, 50, 100 and 500 μM respectively, and then treated with fresh culture media containing GCV drug, and after 96 h of experiment, the culture media containing GCV drug was removed, then chromogenic reaction was carried out with WST-1 at 37° C. for 2 h, and finally analyzed by enzyme-linked immunosorbent assay (ELISA) at wavelengths of 450 nm and 620 nm respectively and plotted to obtain cell survival rate for calculation of cytotoxic effect of drug.

`O=c1[nH]c(=O)n([C@@H]2O[C@H](CO)[C@@H](O)[C@@H]2F)cc1[131I]` [131I-FIAU] was tested, and the “uptake amount of 131I-FIAU per 0.1 million cells” value ([1]; 1—17 cell line) was 20.1±0.41%, the “uptake amount of 131I-FIAU per 0.1 million cells” value ([1]; 1—18 cell line) was 41.5±1.00% and the “uptake amount of 131I-FIAU per 0.1 million cells” value ([1]; 1—34 cell line) was 27.2±1.07%. For the same compound, the “uptake amount of 131I-FIAU per 0.1 million cells” value ([1]; 2—24 cell line) was 22.9±0.68%, the “uptake amount of 131I-FIAU per 0.1 million cells” value ([1]; 2—27 cell line) was 12.9±0.45% and the “uptake efficiency for 131I-FIAU” value (HepG2 cells) was “very low uptake efficiency”. The “uptake efficiency for 131I-FIAU” value (HepG2 NF-κB/Luc cells) was “very low uptake efficiency”.
`Nc1nc(O)c2ncn(COC(CO)CO)c2n1` [GCV, ganciclovir] was tested, and the “cytotoxic effect (cell survival rate) compared with control group (HepG2)” value ([2]; 1—18 cell line) was “obvious cytotoxic effect” and the “cytotoxic effect (cell survival rate) compared with control group (HepG2)” value ([2]; 2—24 cell line) was “obvious cytotoxic effect”.

From patent US20120295349A1, “MAMMAL DEDICATED CELL LINE FROM HUMAN HEPATOCELLULAR CARCINOMA CELL” (Institute of Nuclear Energy Research Atomic Energy Council, …, priority 2009, published 2012)
